Where two headings read alike, the source gives them in different places. Bridge positions count the residues as written; N and C are the ends. Peptide text beside a SMILES is read from it.
Legend:
Format in all cases: cell-based
[1] = target: T1, Kv1.3/I472C mutant (Kv1.3∗) (Homo sapiens, UniProt P22001, I472C); test: Gating-current recording, Kv1.3* in HEK293T cells; settings: mean ± SD; for IC50: held at −100 mV, 50 ms depolarization to +30 mV, HEK293T
T1 construct: expressed in transfected cells; host or cells: HEK293T
T1 sequence (P22001 whole entry I472C): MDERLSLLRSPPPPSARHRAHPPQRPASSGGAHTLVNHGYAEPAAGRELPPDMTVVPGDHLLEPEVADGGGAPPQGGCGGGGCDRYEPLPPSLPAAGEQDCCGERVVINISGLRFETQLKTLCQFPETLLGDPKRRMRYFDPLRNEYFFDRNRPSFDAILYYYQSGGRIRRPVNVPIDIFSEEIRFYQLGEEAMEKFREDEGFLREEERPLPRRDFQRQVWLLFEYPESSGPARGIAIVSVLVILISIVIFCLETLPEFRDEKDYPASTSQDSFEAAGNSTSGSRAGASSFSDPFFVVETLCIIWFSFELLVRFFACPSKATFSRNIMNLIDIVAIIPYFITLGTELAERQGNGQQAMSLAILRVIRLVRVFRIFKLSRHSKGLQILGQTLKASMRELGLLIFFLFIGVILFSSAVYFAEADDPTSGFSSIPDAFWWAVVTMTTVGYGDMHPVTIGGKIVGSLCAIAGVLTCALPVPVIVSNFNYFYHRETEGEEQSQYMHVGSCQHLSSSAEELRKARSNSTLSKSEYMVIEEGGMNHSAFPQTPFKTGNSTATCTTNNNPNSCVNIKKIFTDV
Description: (§1) The cDNA of hKv1.1, hKv1.2, hKv1.3, rKv1.4, hKv1.5, mKv1.6, and hKv1.7 were subcloned into mammalian expression vectors pcDNA3.1 or pCMV-blank vectors, as well as other plasmids described previously ([35]). Channel mutants were generated by site-directed mutations. Briefly, the parental channel plasmid was amplified using a pair of oppositely directed primers harboring the designed mutation site, with KOD Fx (TOYOBO Co, Ltd). The resulting PCR mix was treated with FastDigest DpnI (Thermo Fisher Scientific) to remove the methylated template. Ten microliters of the digested product was then used to transform 100 μl E. coli DH5α competent cells. Transformants were randomly picked and sequenced to confirm the presence of the intended mutation.
CHO-K1 cells were selected for expressing Kv channels due to their lack of endogenous Kv channels, while HEK293 or ND7/23 cells were used for Nav and Cav channel expression. CHO-K1 cells were cultured in a Dulbecco's modified Eagle's medium/Ham's F-12 nutrient mixture (DMEM-F12) medium, and HEK293T and ND7/23 cells in DMEM medium, all supplemented with 10% fetal bovine serum and 1% penicillin-streptomycin (all from Gibco, Thermo Fisher Scientific, Inc) under standard conditions (37 °C, 5% CO2, and saturated humidity). These cell lines were purchased from Stem Cell Bank, Chinese Academy of Sciences. Channel plasmids were cotransfected with pEGFP-N1 (encoding GFP) into the respective cells using lipofectamine 2000, following the manufacturer's instructions (Invitrogen, Thermo Fisher Scientific, Inc.). […] After 4 to 6 h transfection, cells were seeded onto poly-lysine–coated coverslips, and 24 to 36 h later, transfected cells were ready for patch-clamp analysis. […]
Gating currents were recorded by transfecting HEK293T cells with a saturating dose of plasmid to ensure maximal channel expression. […] Gating charge movement (Q) was determined by integrating the area under the IgON and IgOFF traces, representing voltage sensor movement in response to depolarizing pulses. […]

[2] = target: T2, mKv1.6 (Mus musculus, UniProt Q61923); test: Whole-cell patch clamp, Kv1.6 ionic current in CHO-K1 cells; settings: +30 mV, 500 ms, holding −80 mV, mean ± SD, n = 4–7, read-out: IC50, inhibition of Kv1.6 current (full inhibition)
T2 construct: expressed in transfected cells; host or cells: CHO-K1
T2 sequence (Q61923 whole entry): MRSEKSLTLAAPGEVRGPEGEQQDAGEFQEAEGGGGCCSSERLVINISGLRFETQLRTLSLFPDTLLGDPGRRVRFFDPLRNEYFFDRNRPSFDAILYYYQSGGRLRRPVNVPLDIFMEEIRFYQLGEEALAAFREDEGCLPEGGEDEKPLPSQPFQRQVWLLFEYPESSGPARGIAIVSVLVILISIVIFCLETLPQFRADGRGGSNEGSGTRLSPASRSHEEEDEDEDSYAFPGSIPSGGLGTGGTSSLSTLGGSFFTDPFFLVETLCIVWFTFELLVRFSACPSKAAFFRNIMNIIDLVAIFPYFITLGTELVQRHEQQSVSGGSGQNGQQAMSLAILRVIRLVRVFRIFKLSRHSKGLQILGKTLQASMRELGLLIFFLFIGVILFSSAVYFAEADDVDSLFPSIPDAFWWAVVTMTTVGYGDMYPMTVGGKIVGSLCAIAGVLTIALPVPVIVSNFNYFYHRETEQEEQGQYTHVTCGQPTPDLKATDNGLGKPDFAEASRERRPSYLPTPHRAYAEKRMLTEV
Description: as §1, with “Transformants were randomly picked and sequenced to confirm the presence of the intended mutation.” left out
(§2) CHO-K1 cells were selected for expressing Kv channels due to their lack of endogenous Kv channels, while HEK293 or ND7/23 cells were used for Nav and Cav channel expression. […] After 4 to 6 h transfection, cells were seeded onto poly-lysine–coated coverslips, and 24 to 36 h later, transfected cells were ready for patch-clamp analysis. […]
(§3) For Kv current recordings, the bath solution contained (in mM) the following: 140 NaCl, 5 KCl, 1 MgCl2, 2 CaCl2, 10 glucose, and 10 Hepes (pH 7.3, adjusted with NaOH), and the pipette solution contained (in mM) the following: 140 KCl, 2.5 MgCl2, 11 EGTA, and 10 Hepes (pH 7.3, adjusted with KOH). […] The steady-state fast inactivation of Kv1.3 was measured using a two-pulses protocol. […]

[3] = target: T3, hKv1.2 (Homo sapiens, UniProt P16389); test: Whole-cell patch clamp, Kv1.2 ionic current in CHO-K1 cells; settings: +30 mV, 500 ms, holding −80 mV, mean ± SD, n = 4–7, read-out: IC50, inhibition of Kv1.2 current (full inhibition)
T3 construct: expressed in transfected cells; host or cells: CHO-K1
T3 sequence (P16389 whole entry): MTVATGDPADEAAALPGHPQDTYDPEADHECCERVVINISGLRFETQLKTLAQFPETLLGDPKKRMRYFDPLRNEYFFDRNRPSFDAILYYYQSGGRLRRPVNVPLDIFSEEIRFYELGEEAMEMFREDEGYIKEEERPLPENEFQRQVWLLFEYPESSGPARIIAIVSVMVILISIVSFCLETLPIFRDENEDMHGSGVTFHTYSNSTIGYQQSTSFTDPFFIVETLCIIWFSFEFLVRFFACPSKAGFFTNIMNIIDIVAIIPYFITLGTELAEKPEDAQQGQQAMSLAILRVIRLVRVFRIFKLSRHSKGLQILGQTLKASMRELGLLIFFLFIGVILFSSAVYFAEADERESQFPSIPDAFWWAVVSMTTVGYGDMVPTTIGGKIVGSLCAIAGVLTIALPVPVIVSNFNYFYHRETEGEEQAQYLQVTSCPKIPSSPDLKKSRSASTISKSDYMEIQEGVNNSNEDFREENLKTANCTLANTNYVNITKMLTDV
Description: as §1, with “Transformants were randomly picked and sequenced to confirm the presence of the intended mutation.” left out
as §2, §3

## CC[C@H](C)[C@@H]1NC(=O)[C@H](Cc2ccc(O)cc2)NC(=O)[C@H](CCC(N)=O)NC(=O)[C@@H]2CCCN2C(=O)[C@@H]2CSSC[C@H](NC(=O)[C@H](C)NC(=O)[C@H](CO)NC(=O)[C@H](CCC(=O)O)NC(=O)[C@H](CCC(=O)O)NC(=O)[C@@H](N)[C@@H](C)O)C(=O)NCC(=O)NCC(=O)N[C@@H](Cc3ccccc3)C(=O)N[C@@H](CC(N)=O)C(=O)N[C@@H](C)C(=O)N[C@@H](CCCNC(=N)N)C(=O)N[C@H]3CSSC[C@H](NC1=O)C(=O)N[C@@H](CCCCN)C(=O)NCC(=O)N[C@@H](Cc1c[nH]c4ccccc14)C(=O)N[C@@H](CCCNC(=N)N)C(=O)N[C@@H]([C@@H](C)O)C(=O)N[C@@H](CCCCN)C(=O)N[C@@H](CCCNC(=N)N)C(=O)N[C@H](C(=O)N[C@@H](CC(C)C)C(=O)N[C@@H](CC(N)=O)C(=O)N1CCC[C@H]1C(=O)O)CSSC[C@H](NC(=O)[C@H](CCCCN)NC(=O)[C@H](Cc1c[nH]cn1)NC(=O)[C@H](CC(C)C)NC(=O)[C@@H]1CCCN1C3=O)C(=O)N2 [MrVIII] (H-TEESACGGFNARCPLHKCCPQYICKGWRTKRCLNP-OH; disulfide 6-19, 13-24, 18-32; N-terminus and C-terminus assumed)
[1]; 5 nM MrVIII, before toxin −30.1 ± 7.1 mV, n = 5
  Va of Q-V relationship of Kv1.3∗ after toxin: −27.4 ± 10.3 mV
[1]; n = 8, read-out: IC50, inhibition of IgOFF gating current of Kv1.3∗
  IC50: 7 ± 4.2 nM
[1]; n = 8, read-out: IC50, inhibition of IgON gating current of Kv1.3∗
  IC50: 5 ± 3.4 nM
[2]
  IC50: 13.4 ± 6.7 nM
[3]
  IC50: 0.5 ± 0.1 nM
